Reference: patent publication US10294259B2, “Phenyl c-glucoside derivative containing deoxyglucose structure, preparation method and use thereof” (Tianjin Institute of Pharmaceutical Research, priority 2012, dated 2019)
Read-outs that look alike come from different tables or passages of the source.

Assays:
[1] = test system: SD rats (type 2 diabetes model); test: Urine glucose excretion in streptozotocin/high-fat high-sucrose diet type 2 diabetes model rats, glucose-oxidase method; assay type: in vivo, rat; settings: for Urine glucose excretion: 6 mg/kg intragastric, glucose 2 g/kg at 0.5 h, urine collected 0-12 h; for urine glucose excretion effect (comparison in words): compared with analogues or non-deoxy compounds
Method: The health SD rats are injected intraperitoneally with multiple low doses of streptozotocin for modeling (type 2 diabetes model) after feeding with high-fat and high-sucrose diet, and the content of blood glucose is measured before and after modeling. After the modeling successful, the rats for modeling are randomly divided (8 rats/group) into one blank group (administering the same volume of 0.5% CMC sodium solution) and several groups for compounds to be tested (6 mg/kg) according to the content of 24-hour urine glucose and the body weight. Rats in each group are fasted for 16 hours before experiment. The experimental rats are administered intragastrically with glucose (2 g/kg) at 0.5 h after intragastrical administration with compounds to be tested. The urine is collected at the time-period of 0-12 h after administration, and the urine glucose values are measured at each time-period by glucose-oxidase method. […]

hSGLT2 = hSGLT2 (Homo sapiens (Human), UniProt P31639); test: IC50 of inhibition on SGLT2 (method of Meng et al., J. Med. Chem. 2008); assay type: cell-based
[2] = single dose 750 mg/kg intragastric, 10 mice/group, observed one week
[3] = both, mouse, in vivo, 750 mg/kg, 1 week
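Wherever Behaviors after administration with the compound to be tested is given: test animals were mice weighing 18-20 g, with both sexes in equal numbers in each group.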

hSGLT2, sequence (P31639 whole entry): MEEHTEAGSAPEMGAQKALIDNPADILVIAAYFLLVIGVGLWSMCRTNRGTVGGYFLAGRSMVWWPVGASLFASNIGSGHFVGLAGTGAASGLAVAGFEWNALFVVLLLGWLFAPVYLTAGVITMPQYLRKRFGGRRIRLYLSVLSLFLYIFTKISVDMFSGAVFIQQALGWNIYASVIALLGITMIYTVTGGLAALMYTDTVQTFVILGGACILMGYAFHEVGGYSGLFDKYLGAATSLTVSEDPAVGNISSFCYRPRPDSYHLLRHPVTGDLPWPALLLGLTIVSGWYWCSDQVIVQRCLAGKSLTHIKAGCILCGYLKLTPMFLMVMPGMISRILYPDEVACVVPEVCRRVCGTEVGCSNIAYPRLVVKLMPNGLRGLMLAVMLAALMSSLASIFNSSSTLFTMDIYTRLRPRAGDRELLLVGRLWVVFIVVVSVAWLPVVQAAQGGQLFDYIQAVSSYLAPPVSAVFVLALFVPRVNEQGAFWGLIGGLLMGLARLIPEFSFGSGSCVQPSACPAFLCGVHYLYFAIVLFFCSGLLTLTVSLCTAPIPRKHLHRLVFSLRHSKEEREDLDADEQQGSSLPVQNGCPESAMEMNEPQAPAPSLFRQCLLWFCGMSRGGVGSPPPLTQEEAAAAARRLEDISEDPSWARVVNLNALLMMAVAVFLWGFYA
Method for Mice: Mice (18-20 g) with equal numbers of male and female are divided into groups (10 mice/group), after normal feeding for 3 days, fasted for 12 hours, and then administered intragastrically with a single dose of 750 mg/kg compound respectively.

Row | Structure (SMILES) | Behaviors after administration with the compound to be tested (Mice; [2]) [dead] | also measured
1 | COc1ccc(Cc2cc(C3OC(CO)CC(O)C3O)ccc2Cl)cc1 (stereo not shown) |  | Urine glucose excretion [1]: 310 mg/200 g body weight of the rat
2 | CCc1ccc(Cc2cc(C3OC(CO)C(O)CC3O)ccc2C)cc1 (stereo not shown) |  | Urine glucose excretion [1]: 230 mg/200 g body weight of the rat
3 | CCOc1ccc(Cc2cc(C3OC(C)(C)C(O)C(O)C3O)ccc2Cl)cc1 (stereo not shown) |  | Urine glucose excretion [1]: 470 mg/200 g body weight of the rat
4 | C=C1OC(c2ccc(Cl)c(Cc3ccc(OC)cc3)c2)C(O)C(O)C1O (stereo not shown) |  | Urine glucose excretion [1]: 410 mg/200 g body weight of the rat
5 | COc1ccc(Oc2cc(C3OC(C)C(O)C(O)C3O)ccc2Cl)cc1 (stereo not shown) |  | Urine glucose excretion [1]: 457 mg/200 g body weight of the rat
6 | CCOc1ccc(Cc2cc(C3OC(CO)C(O)C(O)C3O)ccc2Cl)cc1 (stereo not shown) | 8 | 
7 | OCC1OC(c2ccc(F)c(Cc3cc4ccccc4s3)c2)C(O)C(O)C1O (stereo not shown) |  | Behaviors after administration with the compound to be tested (Mice; [3]): 7 dead
8 | CCOc1ccc(Cc2cc([C@]34OC[C@](CO)(O3)[C@@H](O)[C@H](O)[C@H]4O)ccc2Cl)cc1 | 9 | 
9 | CCCOc1ccc(Cc2cc(C3OC(C)C(O)C(O)C3O)ccc2Cl)cc1 (stereo not shown) | 6 | 
10 | CCOc1ccc(Cc2cc(C3CC(O)C(O)C(CO)O3)ccc2Cl)cc1 (stereo not shown) | 2 | 
11 | Cc1ccc(C2OC(CO)CC(O)C2O)cc1Cc1ccc(-c2ccc(F)cc2)s1 (stereo not shown) | 3 | 
12 | Cc1ccc(C2CC(O)C(O)C(CO)O2)cc1Cc1ccc(-c2ccc(F)cc2)s1 (stereo not shown) | 5 | 
13 | CC1OC(c2ccc(F)c(Cc3cc4ccccc4s3)c2)C(O)C(O)C1O (stereo not shown) | 2 | 
14 | OCC1OC(c2ccc(Cl)c(Cc3ccc(O[C@H]4CCOC4)cc3)c2)C(O)CC1O (stereo partly shown) | 0 | 
15 | Cc1ccc(C2OC(CO)C(O)C(O)C2O)cc1Cc1ccc(-c2ccc(F)cc2)s1 (stereo not shown) | 9 | 
16 | OCC1OC(c2ccc(Cl)c(Cc3ccc(O[C@H]4CCOC4)cc3)c2)C(O)C(O)C1O (stereo partly shown) | 7 | 
17 | CCOc1ccc(Cc2cc(C3SC(CO)C(O)C(O)C3O)c(OC)cc2C)cc1 (stereo not shown) |  | Behaviors after administration with the compound to be tested (Mice; [3]): 10 dead
18 | CCOc1ccc(Cc2cc(C3OC(CO)C(O)CC3O)ccc2Cl)cc1 (stereo not shown) | 3 | 
19 | Cc1ccc(C2OC(C)C(O)C(O)C2O)cc1Cc1ccc(-c2ccc(F)cc2)s1 (stereo not shown) | 4 | 
20 | Cc1ccc(C2OC(CO)C(O)CC2O)cc1Cc1ccc(-c2ccc(F)cc2)s1 (stereo not shown) | 3 | 

Row | Structure (SMILES) | Behaviors after administration with the compound to be tested (Mice; [2]) [dead] | also measured
21 | OCC1OC(c2ccc(F)c(Cc3cc4ccccc4s3)c2)C(O)CC1O (stereo not shown) | 0 | 
22 | OCC1CC(O)C(O)C(c2ccc(F)c(Cc3cc4ccccc4s3)c2)O1 (stereo not shown) | 1 | 
23 | OCC1OC(c2ccc(F)c(Cc3cc4ccccc4s3)c2)CC(O)C1O (stereo not shown) | 3 | 
24 | CC1OC(c2ccc(Cl)c(Cc3ccc(O[C@H]4CCOC4)cc3)c2)C(O)C(O)C1O (stereo partly shown) | 1 | 
25 | OCC1OC(c2ccc(Cl)c(Cc3ccc(O[C@H]4CCOC4)cc3)c2)CC(O)C1O (stereo partly shown) | 2 | 
26 | CCc1ccc(Cc2c(Cl)ccc3c2COC32OC(CO)C(O)CC2O)cc1 (stereo not shown) | 5 | 
27 | CCOc1ccc(Cc2cc(C3SC(CO)CC(O)C3O)c(OC)cc2C)cc1 (stereo not shown) | 1 | 
28 | CCc1ccc(Cc2c(Cl)ccc3c2COC32CC(O)C(O)C(CO)O2)cc1 (stereo not shown) | 2 | 
29 | CCOc1ccc(Cc2cc(C3CC(O)C(O)C(CO)S3)c(OC)cc2C)cc1 (stereo not shown) | 3 | 
30 | CCOc1ccc(Cc2cc([C@]34OC[C@](C)(O3)[C@@H](O)[C@H](O)[C@H]4O)ccc2Cl)cc1 | 3 | 
31 | CCOc1ccc(Cc2cc([C@@]34OC[C@@](CO)(C[C@H](O)[C@H]3O)O4)ccc2Cl)cc1 | 4 | 
32 | CCOc1ccc(Cc2cc(C3OC(C)CC(O)C3O)ccc2Cl)cc1 (stereo not shown) | 1 | 
33 | CC1OC(c2ccc(F)c(Cc3cc4ccccc4s3)c2)CC(O)C1O (stereo not shown) | 1 | 
34 | CCc1ccc(Cc2c(Cl)ccc3c2COC32CC(O)CC(CO)O2)cc1 (stereo not shown) | 1 | 
35 | OCC1CC(O)C(O)C(c2ccc(Cl)c(Cc3ccc(O[C@H]4CCOC4)cc3)c2)O1 (stereo partly shown) | 2 | 
36 | CCc1ccc(Cc2c(Cl)ccc3c2COC32OC(CO)CC(O)C2O)cc1 (stereo not shown) | 5 | 
37 | CCc1ccc(Cc2c(Cl)ccc3c2COC32OC(C)C(O)C(O)C2O)cc1 (stereo not shown) | 3 | 
38 | CCOc1ccc(Cc2cc(C3SC(C)C(O)C(O)C3O)c(OC)cc2C)cc1 (stereo not shown) | 4 | 
39 | CCOc1ccc(Cc2cc([C@]34C[C@@H](O)[C@H](O)[C@](CO)(CO3)O4)ccc2Cl)cc1 | 2 | 
40 | CCOc1ccc(Cc2cc([C@]34OC[C@](CO)(O3)[C@@H](O)C[C@H]4O)ccc2Cl)cc1 | 3 | 

Row | Structure (SMILES) | Behaviors after administration with the compound to be tested (Mice; [2]) [dead] | also measured
41 | Cc1ccc(C2OC(C)C(O)CC2O)cc1Cc1ccc(-c2ccc(F)cc2)s1 (stereo not shown) | 0 | 
42 | OCC1CCC(O)C(c2ccc(Cl)c(Cc3ccc(O[C@H]4CCOC4)cc3)c2)O1 (stereo partly shown) | 2 | 
43 | CCOc1ccc(Cc2cc([C@@H]3C[C@@H](O)[C@H](O)[C@@H](CO)O3)ccc2Cl)cc1 [I-D1-2, (1S)-1-[4-chloro-3-(4-ethoxybenzyl)phenyl]-1,2-dideoxy-D-glucose] |  | urine glucose excretion effect (comparison in words) [1]: stronger urine glucose excretion effect
44 | CCOc1ccc(Cc2cc([C@@H]3O[C@H](CO)[C@@H](O)C[C@H]3O)ccc2Cl)cc1 [I-D1-3, (1S)-1-[4-chloro-3-(4-ethoxybenzyl)phenyl]-1,3-dideoxy-D-glucose] |  | urine glucose excretion effect (comparison in words) [1]: stronger urine glucose excretion effect
45 | CCOc1ccc(Cc2cc([C@@H]3O[C@H](CO)C[C@H](O)[C@H]3O)ccc2Cl)cc1 [I-D1-4, (1S)-1-[4-chloro-3-(4-ethoxybenzyl)phenyl]-1,4-dideoxy-D-glucose] |  | urine glucose excretion effect (comparison in words) [1]: stronger urine glucose excretion effect
46 | CCOc1ccc(Cc2cc(C3OC(C)C(O)C(O)C3O)ccc2C)cc1 (stereo not shown) [drawing 219] |  | Urine glucose excretion [1]: 700 mg/200 g body weight of the rat
47 | CCOc1ccc(Cc2cc(C3OC(CO)CC(O)C3O)ccc2Cl)cc1 (stereo not shown) [drawing 229] |  | Urine glucose excretion [1]: 880 mg/200 g body weight of the rat
48 | CCc1ccc(Cc2c(Cl)ccc3c2COC32OC(CO)C(O)C(O)C2O)cc1 (stereo not shown) [drawing 258] |  | Urine glucose excretion [1]: 755 mg/200 g body weight of the rat
49 | CCOc1ccc(Cc2cc(C3CCC(O)C(CO)S3)c(OC)cc2C)cc1 (stereo not shown) [drawing 266] |  | Urine glucose excretion [1]: 730 mg/200 g body weight of the rat
50 | CCc1ccc(Cc2c(Cl)ccc3c2COC32OC(CO)C(O)C(O)C2O)cc1 (stereo not shown) [drawing 269] | 7 | 
51 | CCOc1ccc(Cc2cc(C3OC(CO)CC(O)C3O)ccc2Cl)cc1 (stereo not shown) [drawing 272] | 2 | 
52 | COc1ccc(Cc2cc(C3OC(C)C(O)C(O)C3O)ccc2Cl)cc1 (stereo not shown) [drawing 281] | 7 | 
53 | CCOc1ccc(Cc2cc(C3OC(C)C(O)C(O)C3O)ccc2Cl)cc1 (stereo not shown) [drawing 282] | 1 | 
54 | CCOc1ccc(Cc2cc(C3SC(CO)C(O)CC3O)c(OC)cc2C)cc1 (stereo not shown) [drawing 303] | 0 | 
55 | CCOc1ccc(Cc2cc(C3SC(CO)C(O)CC3O)c(OC)cc2C)cc1 (stereo not shown) [drawing 304] | 3 | 
56 | CCOc1ccc(Cc2cc(C3CCC(O)C(CO)S3)c(OC)cc2C)cc1 (stereo not shown) [drawing 310] | 0 | 
57 | COc1ccc(Cc2cc(C3OC(C)C(O)C(O)C3O)ccc2Cl)cc1 (stereo not shown) [drawing 311] |  | Selectivity IC50 (hSGLT1)/IC50 (hSGLT2) (hSGLT2): 26
58 | CCOc1ccc(Cc2cc(C3OC(C)C(O)C(O)C3O)ccc2C)cc1 (stereo not shown) [drawing 313] |  | Selectivity IC50 (hSGLT1)/IC50 (hSGLT2) (hSGLT2): 24
